Each structure is given as a SMILES string. ≈ marks a conversion by molar mass, not a printed value.

In series [1] the test system is intracellular MRSA sequestered inside murine macrophages. The experiment in a line: MIC determination for intracellular bacteria inside murine peritoneal macrophages. It is filed as cell-based, Staphylococcus aureus. The procedure: Intracellular MIC was determined on bacteria that were sequestered inside mouse peritoneal macrophages (see below for generation of murine peritoneal macrophages). Macrophages were plated in 24 well culture dishes at a density of 4×10^5 cells/mL and infected with MRSA at a ratio of 10-20 bacteria per macrophage. Macrophage cultures were maintained in growth media supplemented with 50 ug/mL of gentamycin (an antibiotic that is active only on extracellular bacteria) to inhibit the growth of extracellular bacteria and test antibiotics were added to the growth media 1 day after infection. The survival of intracellular bacteria was assessed 24 hours after addition of the antibiotics. Macrophages were lysed with Hanks Buffered Saline Solution supplemented with 0.1% Bovine Serum Albumin and 0.1% Triton-X, and serial dilutions of the lysate were made in Phosphate Buffered Saline solution containing 0.05% Tween-20. The number of surviving intracellular bacteria was determined by plating on Tryptic Soy Agar plates with 5% defibrinated sheep blood.
Peritoneal macrophages were isolated from the peritoneum of 6-8 week old Balb/c mice (Charles River Laboratories, Hollister, Calif.). To increase the yield of macrophages, mice were pre-treated by intraperitoneal injection with 1 mL of thioglycolate media (Becton Dickinson). The thioglycolate media was prepared at a concentration of 4% in water, sterilized by autoclaving, and aged for 20 days to 6 months prior to use. Peritoneal macrophages were harvested 4 days post treatment with thioglycolate by washing the peritoneal cavity with cold phosphate buffered saline. Macrophages were plated in Dulbecco's Modified Eagle Medium (DMEM) supplemented with 10% Fetal Calf Serum, and 10 mM HEPES, without antibiotics, at a density of 4×10^5 cells/well in 24 well culture dishes. Macrophages were cultured over night to permit adherence to the plate. This assay was also utilized to test intracellular killing in non-phagocytic cell types. MG63 (CRL-1427) and A549 (CCL185) cell lines were obtained from ATCC and maintained in RPMI 1640 tissue culture media supplemented with 10 mM Hepes and 10% Fetal Calf Serum (RPMI-10). HUVEC cells were obtained from Lonza and maintained in EGM Endothelial Cell Complete Media (Lonza, Walkersville, Md.).
(§1) For extracellular bacteria, MRSA was cultured overnight in Tryptic Soy Broth, and the MIC was determined to be the minimum antibiotic dose that prevented growth. For intracellular bacteria, murine peritoneal macrophages were infected with MRSA and cultured in the presence of gentamycin to kill extracellular bacteria. Test antibiotics were added to the culture medium one day post infection, and the total number of surviving intracellular bacteria was determined 24 hours later. The expected serum concentrations for clinically relevant antibiotics was reported in Antimicrobial Agents, Andre Bryskier. ASM Press, Washington D.C. (2005).

Another series relates to USA300. Description: In vivo transfer of infection model in A/J mice (free vs intracellular bacteria). Also noted: species or system Staphylococcus aureus. Conditions: mice infected i.v. with free or intracellular bacteria, examined 4 days after infection. On the procedure: USA300 stocks were prepared for infection from actively growing cultures in tryptic soy broth. Bacteria were washed 3× in phosphate buffered saline (PBS) and aliquots were frozen at −80° C. in PBS 25% glycerol. Intracellular Bacteria Infections: A/J mice were chosen for these experiments because they are easily infected with relatively low doses of MRSA (2×10^6 CFU/mouse). 7 week old female A/J mice were obtained from Jackson Lab and infected by peritoneal injection with 5×10^7 CFU of USA300. Mice were sacrificed 1 day post infection and the peritoneum was flushed with 5 mL of cold PBS. Peritoneal washes were centrifuged for 5 minutes at 1,000 rpm at 4° C. in a table top centrifuge. The cell pellet containing peritoneal cells was collected and cells were treated with 50 ug/mL of lysostaphin (Cell Sciences Inc. Canton Mass., CRL 309C) for 20 minutes at 37° C. to kill contaminating extracellular bacteria. Peritoneal cells were washed 3x in ice cold PBS to remove the lysostaphin. […]
These experiments compared the virulence of intracellular bacteria versus an equivalent dose of free-living planktonic bacteria, and determined whether the intracellular bacteria are able to establish infection in the presence of vancomycin in vivo. […]

The subject of another series is MRSA. The experiment in a line: In vitro transfer of infection to MG63 osteoblasts / HBMEC in the presence of vancomycin. The series is classed as cell-based, Staphylococcus aureus. On the procedure: 6-8 week old female A/J mice (Jackson Lab) were infected with 1×10^8 CFU of the NRS384 strain of USA300 by peritoneal injection. The peritoneal wash was harvested 1 day post infection, and the infected peritoneal cells were treated with 50 ug/mL of lysostaphin diluted in Hepes Buffer supplemented with 0.1% BSA (HB buffer) for 30 minutes at 37° C. Peritoneal cells were then washed 2x in ice cold HB buffer. The peritoneal cells were diluted to 1×10^6 cells/mL in RPMI 1640 tissue culture media supplemented with 10 mM Hepes and 10% Fetal Calf Serum, and 5 ug/mL vancomycin. Free MRSA from the primary infection was stored overnight at 4° C. in Phosphate Buffered Saline Solution as a control for extracellular bacteria that were not subject to neutrophil killing.
MG63 cell line was obtained from ATCC (CRL-1427) and maintained in RPMI 1640 tissue culture media supplemented with 10 mM Hepes and 10% Fetal Calf Serum (RPMI-10). HBMEC cells (Catalog #1000) and ECM media (catalog#1001) were obtained from SciencCell Research Labs (Carlsbad, Calif.). Cells were plated in 24 well tissue culture plates and cultured to obtain a confluent layer. On the day of the experiment, the cells were washed once in RPMI (without supplements). MRSA or infected peritoneal cells were diluted in complete RPMI-10 and vancomycin was added at 5 ug/mL immediately prior to infection. Peritoneal cells were added to the osteoblasts at 1×10^6 peritoneal cells/mL. A sample of the cells was lysed with 0.1% triton-x to determine the actual concentration of live intracellular bacteria at the time of infection. The actual titer for all infections was determined by plating serial dilutions of the bacteria on Tryptic Soy Agar with 5% defibrinated sheep blood.
MRSA (free bacteria) was seeded in media, media+vancomycin, or media+vancomycin and plated on a monolayer of MG63 osteoblasts (FIG. 1E) or Human Brain Microvascular Endothelial Cells (HBMEC, FIG. 1F). Plates were centrifuged to promote contact of the bacteria with the monolayer. At each time point, the culture supernatant was collected to recover extracellular bacteria or adherent cells were lysed to release intracellular bacteria.

Series [2] deals with MRSA (NRS384 strain of USA300). The experiment in a line: MIC determination for extracellular bacteria in liquid culture. The series is classed as cell-based. The following applies: Staphylococcus aureus, read-out: Extracellular MRSA MIC. The procedure: The MIC for extracellular bacteria was determined by preparing serial 2-fold dilutions of the antibiotic in Tryptic Soy Broth. Dilutions of the antibiotic were made in quadruplicate in 96 well culture dishes. MRSA (NRS384 strain of USA300) was taken from an exponentially growing culture and diluted to 1×10^4 CFU/mL. The bacteria was cultured in the presence of antibiotic for 18-24 hours with shaking at 37° C. and bacterial growth was determined by reading the Optical Density (OD) at […]. The MIC was determined to be the dose of antibiotic that inhibited bacterial growth by >90%.
as §1

The conditions of series [3]: expected serum concentration, from Antimicrobial Agents, Bryskier (2005); cited from earlier work.
Series [4] has as its system MRSA (USA300 NRS384 strain). Description: Murine intravenous infection model (CB17.SCID mice reconstituted with IGIV). The following applies: single dose 24h post infection; free antibiotic at equal molar concentration. It is filed as in vivo, Staphylococcus aureus. The procedure:
S. aureus is a common colonizer of human skin and mucosal surfaces. […] Mouse serum has no appreciable levels of anti-S aureus antibody. To determine whether endogenous anti-WTA antibodies found in normal human serum might compete for binding with the AAC, CB17.SCID mice (Charles River Laboratories, Hollister, Calif.) were reconstituted with GammaGard S/D IGIV Immune Globulin (ASD Healthcare, Brooks Ky.) using a dosing regimen optimized to achieve constant serum levels of at least 10 mg/mL of human IgG in serum. IGIV was administered with an initial intravenous dose of 30 mg per mouse followed by a second dose of 15 mg/mouse by intraperitoneal (i.p.) injection after 6 hours, and subsequent daily dosings of 15 mg per mouse by intraperitoneal injection for 3 consecutive days. These mice were equally susceptible to infection with MRSA compared to untreated controls.
Mice (n=8 for each of antibody or AAC) were infected 4 hours after the first dose of IGIV with 1×10^7 CFU of MRSA (USA300 NRS384 strain) diluted in phosphate buffered saline by intravenous injection. Infected mice were treated with 50 mg/kg of S4497 naked antibody or S4497 AAC from Table 3. […] The total number of bacteria recovered per organ was determined by plating serial dilutions of the tissue homogenate in PBS 0.05% Tween on Tryptic Soy Agar with 5% defibrinated sheep blood.

Series [5] deals with S. aureus (USA300), stationary phase. Description: Time of kill for free antibiotics on non-replicating bacteria. The series is classed as cell-based, Staphylococcus aureus. Conditions: 1×10^-6M antibiotic, overnight incubation in PBS at 37° C. The procedure:
Time of kill for free antibiotics on non-replicating bacteria: S. aureus (USA300) was taken from an overnight stationary phase culture, washed once in Phosphate Buffered Saline (PBS) and suspended at 1×10^7 CFU/mL in PBS with no antibiotic or with 1×10^-6M antibiotic in a 10 mL volume in 50 mL polypropylene centrifuge tubes. The bacteria were incubated at 37° C. overnight with shaking. At each time point, three 1 mL samples were removed from each culture and centrifuged to collect the bacteria. Bacteria were washed once with PBS to remove the antibiotic and the total number of surviving bacteria was determined by plating serial dilutions of the bacteria on agar plates.
MRSA was collected from a stationary phase culture and suspended in phosphate buffered saline containing no antibiotic or 1×10^-6M of rifampin or the rifamycin-derivative (Rifalog) and incubated at 37° C. At the indicated times, a sample of the culture was collected and centrifuged to remove the antibiotic and the total number of surviving bacteria was determined by plating.

The test system of series [6] is S. aureus (USA300) persister cells. The experiment in a line: Killing of persister cells by free antibiotics. The series is classed as cell-based, Staphylococcus aureus. The following applies: ciprofloxacin-treated cultures, second antibiotic 1 ug/ml. On the procedure:
Killing of persisters cells by free antibiotics: S. aureus (USA300) was taken from an overnight stationary phase culture, washed once in Tryptic Soy Broth (TSB) and then adjusted to a final concentration of 1×10^7 CFU/ml in a total volume of 10 mL of either TSB or TSB with ciprofloxicin (0.05 mM). Cultures were incubated with shaking at 37° C. for 6 hours and then the second antibiotic, either rifampicin (1 ug/ml) or another rifamycin-type antibiotic (1 ug/ml) was added. At the indicated times, samples were removed from each culture, washed once with PBS to remove the antibiotic and re-suspended in PBS. The total number of surviving bacteria was determined by plating serial dilutions of the bacteria on agar plates. At the final time point the remainder of each culture was collected and plated.

Consider `CN[C@H](CC(C)C)C(=O)N[C@H]1C(=O)N[C@@H](CC(N)=O)C(=O)N[C@H]2C(=O)N[C@H]3C(=O)N[C@H](C(=O)N[C@H](C(=O)O)c4cc(O)cc(O)c4-c4cc3ccc4O)[C@H](O)c3ccc(c(Cl)c3)Oc3cc2cc(c3O[C@@H]2O[C@H](CO)[C@@H](O)[C@H](O)[C@H]2O[C@H]2C[C@](C)(N)[C@H](O)[C@H](C)O2)Oc2ccc(cc2Cl)[C@H]1O` [Vancomycin], for which the MIC in series [1] (Staphylococcus aureus, MRSA, 24 h, read-out: Intracellular MRSA MIC) is over 100 µg/mL; in series [2] it was 1 µg/mL (≈ 0.69 µM). In addition, in series [1] (macrophages exposed to clinically achievable concentrations), the “killing of MRSA sequestered inside macrophages” value was “failed to kill”. In the series with USA300, the “establishment of infection (kidney, brain) under vancomycin therapy” value was “intracellular bacteria, but not planktonic bacteria, were able to establish infection”. Further, the “increase of intracellular S. aureus over a 24 hour period” value in the series with MRSA (MG63 cells, primary human brain endothelial cells, A549 cells, constant exposure to vancomycin) is about 10 fold. The “survival of intracellular MRSA in the leukocytes” value with MRSA (MRSA sequestered inside peritoneal cells, vancomycin 5 ug/mL) is “About 15%”. For the same compound, the “surviving bacteria associated with the MG63 cells one day after infection” value in the series with MRSA (planktonic bacteria plated on MG63 osteoblasts, vancomycin 5 ug/mL) is recorded as “approximately 0.06 % of input”. Moreover, the “killing of planktonic bacteria exposed to vancomycin alone” value in the series with MRSA (vancomycin 5 ug/mL, one day in culture) was “efficiently killed”. Also, in series [3], the “Serum Cmax” value is 50 µg/mL.

For `CO[C@H]1/C=C/O[C@@]2(C)Oc3c(C)c(O)c4c(=O)c(c5oc6cc(N7CCC(N(C)C)CC7)cc(O)c6nc-5c4c3C2=O)NC(=O)/C(C)=C\C=C\[C@H](C)[C@H](O)[C@@H](C)[C@@H](O)[C@@H](C)[C@H](OC(C)=O)[C@@H]1C` [dimethylpipBOR, dimethylpiperidyl benzoxazino rifamycin], the “efficacy on bacterial counts in infected organs” value in series [4] is recorded as “not efficacicou”. Further, in series [5], the “decrease in the number of viable, but non-replicating, bacteria” value is listed as “more than 1,000 fold”. Besides, the “effect on viability of persister cells” value in series [6] is listed as “eradication of persister cells below the limit of detection”.

These data come from patent US20180021450A1, “ANTI-STAPHYLOCOCCUS AUREUS ANTIBODY RIFAMYCIN CONJUGATES AND USES THEREOF” (Genentech, Inc., priority 2014, published 2018).
